Data published in paper PMC7460544, “Prenylated Flavonoids from the Roots of Tephrosia rhodesica” (Journal of Natural Products, 2020).

What was measured:
[1] = tested on: chloroquine-sensitive (3D7) strain of Plasmodium falciparum; test: asexual P. falciparum imaging growth inhibition assay (antiplasmodial activity); assay type: cell-based; details: for antiplasmodial activity in words: P. falciparum 3D7
HEK 293 mammalian cells = test: cytotoxicity against HEK 293 mammalian cells (LD50); assay type: cell-based; details: single experiment

CCN(CC)CCCC(C)Nc1ccnc2cc(Cl)ccc12 (stereo not drawn) [Chloroquine, reference compound]
IC50 ([1]; Plasmodium falciparum, 3D7, read-out: IC50, μM (Pf3D7)): 0.0047 µM

C=C(C)[C@H]1Cc2c(ccc3c2O[C@@H]2C(O)Oc4cc(OC)c(OC)cc4[C@@H]2C3=O)O1 (stereo partly drawn) [6-Hydroxyrotenone (15), 6-hydroxyrotenone]
LD50 (HEK-293) (HEK 293 mammalian cells): 10.9 µM | antiplasmodial activity in words [1]: moderate activities

CC(C)=CCC1(CC=C(C)C)C(=O)[C@@](O)(CC=C(C)C)C(=O)C2=C1O[C@H](c1ccccc1)C[C@H]2O [Rhodiflavan A (2), 4,6-dihydroxy-6,8,8-tris(3-methylbut-2-en-1-yl)-2-phenyl-2,3,4,8-tetrahydro-5H-chromene-5,7(6H)-dione]
antiplasmodial activity in words [1]: moderate activities

COc1cc(OC)c2c(c1CC=C(C)C)O[C@H](c1ccccc1)C[C@H]2OC [Quercetol B (9), quercetol B]
LD50 (HEK-293), given as % at 40 μM (HEK 293 mammalian cells): 87% at 40 μM | antiplasmodial activity in words [1]: moderate activities

CC(C)=CCC1(CC=C(C)C)C(=O)C(=O)C2=C1O[C@H](c1ccccc1)C[C@H]2O (relative stereo) [Rhodiflavan C (4), (2S*,4R*)-4-hydroxy-7,7-bis(3-methylbut-2-en-1-yl)-2-phenyl-2,3,4,7-tetrahydrocyclopenta[b]pyran-5,6-dione]
LD50 (HEK-293), given as % at 40 μM (HEK 293 mammalian cells): 101% at 40 μM | antiplasmodial activity in words [1]: moderate activities

CC(C)=CCC1(CC=C(C)C)C(=O)[C@](O)(CC=C(C)C)C(=O)C2=C1O[C@H](c1ccccc1)C[C@H]2O [Rhodiflavan B (3), 4,6-dihydroxy-6,8,8-tris(3-methylbut-2-en-1-yl)-2-phenyl-2,3,4,8-tetrahydro-5H-chromene-5,7(6H)-dione]
LD50 (HEK-293), given as % at 40 μM (HEK 293 mammalian cells): 34% at 40 μM | antiplasmodial activity in words [1]: moderate activities

CC(C)=CCc1cc2c(cc1O)OC[C@@]1(O)c3cc4c(cc3O[C@@H]21)OCO4 [Rhodacarpin (5), (6aS,12aS)-2-(3-methylbut-2-en-1-yl)-6H-[1,3]dioxolo[4′,5′:5,6]benzofuro[3,2-c]chromene-3,6a(12aH)-diol]
LD50 (HEK-293), given as % at 40 μM (HEK 293 mammalian cells): 27% at 40 μM | antiplasmodial activity in words [1]: moderate activities
